Experimental data published in patent publication US20120046224A1, “TREATMENT OF DIABETES AND METABOLIC SYNDROME” (NORDIC BIOSCIENCE A/S, priority 2009, published 2012).

Key:
rat hepatocytes = settings: cited from earlier work
[1] = rats, intracerebroventricular administration; cited from earlier work
[2] = cited from earlier work
[3] = Paget's disease of the bone patients, injection; cited from earlier work
[4] = Ovariectomy (OVX)-induced weight gain in Sprague-Dawley rats; assay type: in vivo, rat
Method: (§1) A total of 40 rats were divided into 4 groups, two bilateral ovariectomy (OVX) groups and two normal groups.
(§2) The first day of dosing was day 0. Animals were dosed per oral 5 ml/kg. The compound solution was administered twice daily, the first dose at 7:00 AM and the second dose 8 hours later (between 3 and 4 PM) during the whole study. The dosing was done by oral gavage using a gastric tube connected to a 5 ml syringe. Feeding was ad libitum.
A total of 20 rats were bilaterally ovariectomized (OVX). The animals were treated once daily with either 5-CNAC 150 mg/kg/day alone or that amount of 5-CNAC in combination with Calcitonin 2 mg/kg/day for 8 weeks during which the weight was monitored once a week. Feeding was again ad libitum.
The first day of dosing was day 0. Animals were dosed per oral 5 ml/kg. The compound solution was administered once daily between 7:00 and 8:00 AM during the whole study per oral gavage using a gastric tube connected to a 5 ml syringe.

[5] = i.m. 100 MRC units twice daily, 15 days; cited from earlier work
[6] = rats and mice, intravenous bolus injection; cited from earlier work
[7] = 62.26 pmol/kg, patients with a duodenal ulcer; cited from earlier work
[8] = rats or mice, cited from earlier work
[9] = rabbits, injection, 600 MRC U per month or 50 MRC U single dose; cited from earlier work
[10] = healthy volunteers, intramuscular; cited from earlier work
[11] = 100 MRC units per day, 2 months, cited from earlier work
[12] = Body weight and whole body composition (MR scanning) in DIO rats; assay type: in vivo, rat; settings: for increase in fat content (MR analysis): CT 2 mg/kg/day with 5-CNAC
Method: (§3) A total of 48 selectively bred male DIO rats were used. At the beginning of the experiment, the animals had reached an age of 35 weeks, out of which 31 weeks were on high-fat diet.
(§4) At day −7, 21 and 42 fasted serum and urine samples were collected and whole body tissue composition was evaluated by MR scanning. At day 42, an oral glucose tolerance test (OGTT) was performed to evaluate glucose homeostasis in the rats. At day −1 the animals were stratified according to weight and whole body fat mass (assessed by a 4-in-1 EchoMRI scanner) to the different treatment groups. The groups were randomized in three teams by body weight.
First day of dosing was day 0. Animals were dosed per oral 5 ml/kg. The compound solution was administered once daily at 7:00 AM-2:00 PM during the whole study (0-42 days) per oral gavage using a gastric tube connected to a 5 ml syringe (luer lock™. Becton).
To assess the distribution of the gained weight during the treatment program the animals were subjected to MR analysis after termination. Two parameters were investigated: 1) change in fatty mass and, 2) change in total water content.

[13] = intra-muscular, cited from earlier work
[14] = Weight gain in normal Sprague-Dawley rats; assay type: in vivo, rat; settings: twice daily oral, salmon calcitonin 2 mg/kg/day with 5-CNAC 150 mg/kg/day, 8 weeks, vs control group
Method: as §1, §2

[15] = insulin dependent diabetic patients, intravenous infusion; cited from earlier work
CTX-II = assay: Serum CTX-II after oral dosing in fasted rats; assay type: in vivo, rat; settings: sCT 2 mg/kg, carrier 150 mg/kg
Method: Fasted rats were treated with oral doses of carrier alone (5-CNAC or SNAC), sCT alone or sCT in combination with carrier (5-CNAC or SNAC). Blood sampling was conducted at baseline, one, three and six hours after oral dosing, and serum was isolated. Concentrations of CTX-II were subsequently measured in the serum samples.
Rats were randomized according to weight into five groups and fasted over night. […] Blood samples were taken from tail vein at baseline, one, three and six hours after oral dosing. Serum was isolated from the blood samples and CTX-II concentrations were measured in undiluted serum samples. […] Each group contained 6 animals. Statistical analyses were conducted with one-way ANOVA and Bonferroni's Multiple Comparison Test to adjust for multiple tests. Error bars indicate standard error of mean (SEM). Asterisks indicate: **=p<0.01, ***=p<0.001.

[16] = rhesus monkeys, parenteral, 5 day administration period; cited from earlier work
DIO rats = assay: Oral glucose tolerance test (OGTT) in DIO rats; assay type: in vivo, rat
Method: as §3, §4
First day of dosing was day 0. Animals were dosed per oral 5 ml/kg.
In order to test the glucose handling in different treatment groups, an oral glucose tolerance test (OGTT) was performed.

Sprague Dawley rats = assay: OGTT in healthy lean Sprague Dawley rats; assay type: in vivo, rat
Method: The rats were treated bi daily for 5 weeks using the same dose as in the DIO rats.

[17] = latent diabetes in humans, infusion; cited from earlier work
[18] = fasting animals, parenterally administered; cited from earlier work

Salmon calcitonin [CT]
effect on rat hepatocytes and other cells (rat hepatocytes): little effect | glucose stimulated release of insulin [1]: increased glucose stimulated release of insulin | glucose level and glucagon ([2]; insulin dependent diabetics): a fall in glucose level along with the fall in glucagon | circulating glucagon and serum insulin ([2]; normal human volunteers, infused): a fall in circulating glucagon levels and a fall in serum insulin | serum glucose and serum insulin [3]: a moderate immediate rise in serum glucose and a slight decrease in serum insulin | OVX-induced weight gain ([4]; once daily oral, 8 weeks): does not protect against OVX-induced weight gain | OVX-induced increase in bodyweight ([4]; twice daily oral, 7 weeks): protected partially against the OVX-induced increase in bodyweight | carbohydrate metabolism after a mixed meal stimulus [5]: not seen to cause appreciable change in carbohydrate metabolism | fasting plasma glucose [6]: elevation of fasting plasma glucose | post-prandial insulin release [7]: post-prandial insulin release was abolished | short term food intake ([8]; acute parenteral administration): potently induced reduction in short term food intake | duration of the effect on food intake ([8]; parenteral): 3 days | glucose level measured after fasting [9]: marked decrease in glucose level | blood glucose during a morning fast and glucose tolerance test [10]: inhibited decrease of blood glucose during a morning fast and impaired a glucose tolerance test | glucose tolerance ([11]; Paget's disease or osteoporosis patients): Glucose tolerance did not deteriorate significantly | basal plasma glucose [11]: significant increase in basal plasma glucose | increase in fat content (MR analysis) ([12]; compared to 5-CNAC and vehicle groups): a significant increase compared to the 5-CNAC and vehicle groups | increase in fat content (MR analysis) ([12]; compared to rosiglitazone group, p<0.0001): significantly lower increase in the fat content compared to rosiglitazone group | change in body weight ([12]; once daily oral, Calcitonin 2 mg/kg/day with 5-CNAC 150 mg/kg/day, or 5-CNAC 150 mg/kg/day alone): Neither the CT treated group nor the 5-CNAC group display any change in their body weight | integrated glucose areas under plasma glucose curves ([13]; humans): approximately doubling | response to a glucose tolerance test ([13]; normal humans): a deterioration in response to a glucose tolerance test | natural weight gain [14]: reduction of the natural weight gain | glucose rise in arginine tolerance test [15]: abolished the glucose rise normally seen in an arginine tolerance test | serum CTX-II concentration (CTX-II; one hour after oral dosing, vs carrier alone): significantly lowered the CTX-II concentration | serum CTX-II concentration (CTX-II; three and six hours after oral dosing): return to the baseline level | food intake [16]: reduce food intake in rhesus monkeys throughout a 5 day administration period | AUC of change in insulin levels during OGTT (DIO rats): lowest change in insulin levels | AUC of net change in plasma glucose (glucose clearance during OGTT) (DIO rats): significantly increased glucose clearance during the OGTT | effect on AUC of change in glucose (DIO rats; CT compared to Rosiglitazone groups): markedly larger than the changes seen in the Rosiglitazone groups | peak glucose levels during OGTT (DIO rats; CT treated compared to 5CNAC group): strongly reduced peak glucose levels | basal insulin level to which insulin returns after the peak (DIO rats; OGTT): 4.53 µg/L | plasma insulin response during OGTT (DIO rats; peak 15 minutes after glucose, CT compared to 5-CNAC group): attenuated insulin response | maximum / peak blood glucose level during OGTT (DIO rats; reached 15 minutes after OGTT (CT), at 60 minutes (5-CNAC)): 8.2 mM | AUC of change in glucose during OGTT (Sprague Dawley rats): potently reduces glucose levels | increase of insulin level in response to OGTT (Sprague Dawley rats): approximately 0.5 μg/L | time until insulin level returned to basal (Sprague Dawley rats; OGTT): 60 min | AUC of change in insulin levels during OGTT (Sprague Dawley rats; between groups, p=0.08): the AUC of change is significant between the groups | basal glucose levels (Sprague Dawley rats; treated bi daily for 5 weeks, same dose as in DIO rats): lowered basal glucose levels | peak glucose level during OGTT (Sprague Dawley rats; vs vehicle (5-CNAC) group): prevented this drastic peak | serum level of insulin and blood sugar [17]: reducing the serum level of insulin and increasing the blood sugar | glucose levels [18]: a rise in glucose levels
